Measured values as given in patent US11939588B2, “Elevated resistance to insects and plant pathogens without compromising seed production” (Board of Trustees of Michigan State University, priority 2019, dated 2024).

Legend:
Assay type in all cases: in vivo, Arabidopsis thaliana
[1] = test system: WT, cdk8-1, jazD and jazD cdk8-1 seedlings; assay: Root length on medium with 5-methyl-tryptophan; conditions: 0 or 15 μM 5-MT, 10-day-old, partially dependent on CDK8
Text: FIG. 13A is a schematic of tryptophan biosynthesis from chorismate. Tryptophan feedback inhibits the activity of anthranilate synthase (AS). Although 5-methyl-tryptophan (5-MT) inhibits anthranilate synthase activity, it cannot be used for the production of proteins. The abbreviations used in FIG. 13A are: TRP, anthranilate phosphoribosyltransferase: PAI, phosphoribosylanthranilate isomerase; IGPS, indole-3-glycerol-phosphate synthase; TSA, tryptophan synthase alpha subunit: TSB, tryptophan synthase beta subunit. FIG. 13B graphically illustrates root length of WT, cdk8-1, jazD, and jazD cdk8-1 10-day-old seedlings grown on medium supplemented with 0 or 15 μM of 5-methyl-tryptophan (5-MT). Data shown are the mean±SD of at least 24 seedlings per genotype at each 5-MT concentration. Letters denote significant differences according to Tukey's HSD test (P<0.05).
FIG. 13B graphically illustrates root length of WT, cdk8-1, jazD, and jazD cdk8-1 10-day-old seedlings grown on medium supplemented with 0 or 15 μM of 5-methyl-tryptophan (5-MT). The data shown in FIG. 13B are the mean±SD of at least 24 seedlings per genotype at each 5-MT concentration, while the letters denote significant differences according to Tukey's HSD test (P<0.05).

[2] = test system: WT, jazQ and jazD seedlings; assay: Apical hook formation in ethylene-elicited (ACC-treated) seedlings; conditions: jazD and jazQ seedlings compared with WT
Text: FIGS. 3A-3F illustrates that jazD plants are highly resistant to insect herbivores and necrotrophic pathogens. […] Data shown are the mean±SD of at least 30 larvae per genotype. Capital letters denote significant differences according to Tukey's HSD test (P<0.05). FIG. 3C is a heat map displaying the expression level of various jasmonate/ethylene-responsive genes in leaves of jazQ and jazD normalized to wild type. ACT, agmatine coumaroyl transferase (accession no. At5g61160). […] FIG. 3E graphically illustrates disease lesion size on leaves of the indicated genotypes following 5 days of treatment with B. cinerea spores for the indicated plant lines. […] Capital letters denote significant differences (Tukey's HSD test, P<0.05). FIG. 3F graphically illustrates apical hook angles of seedlings grown in the presence of various concentrations of the ethylene precursor 1-aminocyclopropane-1-carboxylic acid (ACC). Data shown are the mean±SD of at least 21 seedlings per genotype. […]
In agreement with the RNA-seq data, jazQ plants were slightly more susceptible than wild type to the necrotrophic pathogen Botrytis cinerea, whereas jazD leaves were more resistant to the spread of disease lesions (FIG. […]). To determine whether jazQ and jazD differentially affect other ethylene responses, the inventors assessed apical hook formation in ethylene-elicited seedlings.

[3] = test system: wild type Col-0 (WT), jazQ, jazD and jazU seedlings; assay: Root elongation assay with MeJA
Experimental: Seeds were surface sterilized with 50% (v/v) bleach for three min, washed 10 times with sterile water and stratified in dark at 4° C. for two days. Seedlings were grown on 0.7% (w/v) agar media containing half-strength Linsmaier and Skoog (LS; Caisson Labs) salts supplemented with 0.8% (w/v) sucrose and the indicated concentration of MeJA (Sigma-Aldrich). Each square Petri plate (Fisher; 100×100×15 mm) contained five seedlings per genotype. Plates were incubated vertically in a growth chamber maintained at 21° C. for eight days under 16-hour-light (80 μE m^−2s^−1)/8-hour-dark conditions. The length of primary roots was measured using ImageJ software (see website at imagej.nih.gov/ij/).

[4] = test system: leaves of wild type, jazQ and jazD plants; assay: Coronatine treatment of intact leaves; conditions: 50 μM coronatine
Experimental: The eighth true leaf of 40-day-old plants grown under 12-hour-light/12-hour-dark conditions were spotted with 5 μL of sterile water (mock) or a solution containing 50 μM coronatine (Sigma-Aldrich, C8115) prepared in sterile water. Photographs were taken two and four days after treatment.

[5] = test system: WT, jazQ and jazD seedlings; assay: Sucrose rescue assay (leaf biomass and root growth)
Experimental: The effect of exogenous sucrose on leaf biomass and root growth was determined by growing seedlings on square Petri plates (Greiner Bio-One; 120×120×17 mm). In order to control for variation in seed quality, seeds were sieved after drying with desiccant for two weeks (see above). After sterilization and washing, seeds were sown without stratification on 0.7% (w/v) agar media containing half-strength LS salts supplemented with sucrose or sorbitol. Each plate contained ten (for biomass) or five (for root growth) seeds of Col-0 and mutant lines. Plates were placed in the dark at 4° C. for four days and then incubated horizontally (for leaf biomass) or vertically (for root growth) in growth chambers maintained at 21° C. under 16 h at a light intensity of 80 μE m^−2 s^−1 and 8-hour dark. ImageJ was used to measure root length after 11 days. Plant biomass and projected leaf area were measured after 16 days.

## Cc1ccc2[nH]cc(C[C@H](N)C(=O)O)c2c1 [5-MT, 5-methyl-tryptophan]
[1]
  resistance to 5-MT (root length): increased resistance

## NC1(C(=O)O)CC1 [ACC, 1-aminocyclopropane-1-carboxylic acid]
[2]
  stimulation of hook curvature in response to ACC: reduced in jazD but not jazQ seedlings

## CC/C=C\CC1C(=O)CCC1CC(=O)OC (stereo not shown) [MeJA, methyljasmonate]
[3]; jazD seedlings, 0, 5 or 25 μM MeJA, 8-day-old
  sensitivity of jaz decuple mutant (jazD) to jasmonate: highly sensitive
[3]; jazD seedlings, 5 μM MeJA
  growth of roots in the presence of MeJA: effectively arrested
[3]; jazU seedlings versus jazD, very low concentrations (e.g., 1 μM) of MeJA
  root length in the presence of MeJA: even shorter than jazD

## CC[C@H]1C=C(C(=O)N[C@@]2(C(=O)O)C[C@@H]2CC)[C@H]2CCC(=O)[C@H]2C1 [coronatine]
[4]; jazD leaves, 2 or 4 days
  sensitivity of jazD leaves to coronatine: hypersensitive
[4]; jazD leaves, 4 days after treatment
  leaf response after COR application: near complete loss of chlorophyll and spreading of necrosis-like symptoms throughout the leaf
[4]; jazD leaves, within 2 days of treatment
  leaf response at the site of COR application: visible chlorosis
[4]; wild type and jazQ leaves, within 4 days
  chlorosis after COR application: no apparent signs of chlorosis
[4]; wild type and jazQ leaves, within 4 days of treatment
  leaf response at the site of COR application: visible accumulation of anthocyanin pigments

## OC[C@H]1O[C@@](CO)(O[C@H]2O[C@H](CO)[C@@H](O)[C@H](O)[C@H]2O)[C@@H](O)[C@@H]1O [sucrose]
[5]; all genotypes tested (WT, jazQ, jazD), 16-day-old seedlings on agar medium
  effect of exogenous sucrose on biomass: promotes increased biomass
[5]; jazD in comparison with wild type and jazQ, 11-day-old seedlings, 23 mM sucrose
  effect of exogenous sucrose on root growth: enhanced the root growth of jazD
[5]; jazD shoots compared with wild type and jazQ
  stimulatory effect of sucrose on growth of shoots: statistically greater than that of wild type and jazQ
